Assay results: ChEMBL document CHEMBL1201862, “PubChem BioAssay data set” (2004)
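All cell lines were grown in 96-well plates and treated with compound for 48 hours. GI50 marks 50% less growth.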 Calls of active or inactive are those of the source. Cut-off read from the data, not from the text of the source: active = GI50 up to about 1.1 µM and inactive = higher.

What was measured:
Assay in all cases: DTP human tumour cell line panel, 48 h
SK-OV-3 = test system: SK-OV-3
DMS-114 = test system: DMS-114
UACC-257 = test system: UACC-257
OVCAR-5 = test system: OVCAR-5
DLD-1 = test system: DLD-1
SNB-78 = test system: SNB-78
CCRF-CEM = test system: CCRF-CEM
SNB-19 = test system: SNB-19
SK-MEL-5 = test system: SK-MEL-5
KM12 = test system: KM12
SW-620 = test system: SW-620
A549 = test system: A549
ACHN = test system: ACHN
UO-31 = test system: UO-31
NCI-H23 = test system: NCI-H23
M19-MEL = test system: M19-MEL
HL-60 = test system: HL-60
IGROV-1 = test system: IGROV-1
A498 = test system: A498
HT-29 = test system: HT-29
OVCAR-8 = test system: OVCAR-8
CAKI-1 = test system: CAKI-1
COLO 205 = test system: COLO 205
DMS-273 = test system: DMS-273
HOP-62 = test system: HOP-62
NCI-H460 = test system: NCI-H460
XF498 = test system: XF498
U-251 = test system: U-251
RXF 393 = test system: RXF 393
SF-539 = test system: SF-539
SF-295 = test system: SF-295
SK-MEL-28 = test system: SK-MEL-28
SN12C = test system: SN12C
Malme-3M = test system: Malme-3M
HOP-92 = test system: HOP-92
MOLT-4 = test system: MOLT-4
EKVX = test system: EKVX
SR = test system: SR
UACC-62 = test system: UACC-62
LXFL 529 = test system: LXFL 529
TK-10 = test system: TK-10
LOX IMVI = test system: LOX IMVI
SK-MEL-2 = test system: SK-MEL-2
SF-268 = test system: SF-268
OVCAR-4 = test system: OVCAR-4
HOP-18 = test system: HOP-18
786-0 = test system: 786-0
NCI-H226 = test system: NCI-H226
K562 = test system: K562
HCT-15 = test system: HCT-15
RPMI-8226 = test system: RPMI-8226
HCC 2998 = test system: HCC 2998
SNB-75 = test system: SNB-75
NCI-H522 = test system: NCI-H522
NCI/ADR-RES = test system: NCI/ADR-RES
MCF7 = test system: MCF7
HCT-116 = test system: HCT-116
KM-20L2 = test system: KM-20L2
OVCAR-3 = test system: OVCAR-3

Compound: N#Cc1ccccc1Sc1ccccc1N
- GI50 (SK-OV-3): > 100 µM (inactive)
- GI50 (DMS-114): 49.1 µM (inactive)
- GI50 (UACC-257): > 100 µM (inactive)
- GI50 (OVCAR-5): 36.1 µM (inactive)
- GI50 (DLD-1): 93.1 µM (inactive)
- GI50 (SNB-78): > 100 µM (inactive)
- GI50 (CCRF-CEM): 73.1 µM (inactive)
- GI50 (SNB-19): > 100 µM (inactive)
- GI50 (SK-MEL-5): 18.7 µM (inactive)
- GI50 (KM12): 93.3 µM (inactive)
- GI50 (SW-620): > 100 µM (inactive)
- GI50 (A549): 67.3 µM (inactive)
- GI50 (ACHN): > 100 µM (inactive)
- GI50 (UO-31): 45.6 µM (inactive)
- GI50 (NCI-H23): 67.8 µM (inactive)
- GI50 (M19-MEL): > 100 µM (inactive)
- GI50 (HL-60): 72.6 µM (inactive)
- GI50 (IGROV-1): 31.7 µM (inactive)
- GI50 (A498): > 100 µM (inactive)
- GI50 (HT-29): > 100 µM (inactive)
- GI50 (OVCAR-8): > 100 µM (inactive)
- GI50 (CAKI-1): 36 µM (inactive)
- GI50 (COLO 205): > 100 µM (inactive)
- GI50 (DMS-273): > 100 µM (inactive)
- GI50 (HOP-62): > 100 µM (inactive)
- GI50 (NCI-H460): > 100 µM (inactive)
- GI50 (XF498): 92 µM (inactive)
- GI50 (U-251): > 100 µM (inactive)
- GI50 (RXF 393): 80.2 µM (inactive)
- GI50 (SF-539): > 100 µM (inactive)
- GI50 (SF-295): > 100 µM (inactive)
- GI50 (SK-MEL-28): > 100 µM (inactive)
- GI50 (SN12C): 78.3 µM (inactive)
- GI50 (Malme-3M): 42.8 µM (inactive)
- GI50 (HOP-92): 20.7 µM (inactive)
- GI50 (MOLT-4): 43.8 µM (inactive)
- GI50 (EKVX): 77.1 µM (inactive)
- GI50 (SR): 72.6 µM (inactive)
- GI50 (UACC-62): 50.1 µM (inactive)
- GI50 (LXFL 529): 61.5 µM (inactive)
- GI50 (TK-10): > 100 µM (inactive)
- GI50 (LOX IMVI): > 100 µM (inactive)
- GI50 (SK-MEL-2): > 100 µM (inactive)
- GI50 (SF-268): > 100 µM (inactive)
- GI50 (OVCAR-4): 64.4 µM (inactive)
- GI50 (HOP-18): 27 µM (inactive)
- GI50 (786-0): > 100 µM (inactive)
- GI50 (NCI-H226): 13 µM (inactive)
- GI50 (K562): 70.6 µM (inactive)

Compound: O=C(O)CCCCCCC[C@@H]1S[C@H]1CCCCCCO
- GI50 (SK-OV-3): > 100 µM (inactive)
- GI50 (DMS-114): > 100 µM (inactive)
- GI50 (UACC-257): > 100 µM (inactive)
- GI50 (OVCAR-5): > 100 µM (inactive)
- GI50 (DLD-1): > 100 µM (inactive)
- GI50 (HCT-15): > 100 µM
- GI50 (RPMI-8226): > 100 µM (inactive)
- GI50 (SNB-78): > 100 µM (inactive)
- GI50 (CCRF-CEM): > 100 µM (inactive)
- GI50 (HCC 2998): > 100 µM (inactive)
- GI50 (SNB-19): > 100 µM (inactive)
- GI50 (SK-MEL-5): > 100 µM (inactive)
- GI50 (KM12): > 100 µM (inactive)
- GI50 (SW-620): > 100 µM (inactive)
- GI50 (A549): > 100 µM (inactive)
- GI50 (SNB-75): > 100 µM (inactive)
- GI50 (UO-31): > 100 µM (inactive)
- GI50 (NCI-H23): > 100 µM (inactive)
- GI50 (M19-MEL): > 100 µM (inactive)
- GI50 (HL-60): > 100 µM (inactive)
- GI50 (IGROV-1): > 64.7 µM (inactive)
- GI50 (A498): > 60.7 µM (inactive)
- GI50 (NCI-H522): > 100 µM (inactive)
- GI50 (HT-29): > 100 µM (inactive)
- GI50 (OVCAR-8): > 100 µM (inactive)
- GI50 (CAKI-1): > 100 µM (inactive)
- GI50 (COLO 205): > 100 µM (inactive)
- GI50 (DMS-273): > 100 µM (inactive)
- GI50 (HOP-62): > 100 µM (inactive)
- GI50 (NCI/ADR-RES): > 100 µM (inactive)
- GI50 (MCF7): > 100 µM (inactive)
- GI50 (NCI-H460): > 100 µM (inactive)
- GI50 (XF498): > 100 µM (inactive)
- GI50 (U-251): > 100 µM (inactive)
- GI50 (RXF 393): > 100 µM (inactive)
- GI50 (SF-539): > 100 µM (inactive)
- GI50 (HCT-116): > 100 µM (inactive)
- GI50 (SF-295): > 100 µM (inactive)
- GI50 (SK-MEL-28): > 100 µM (inactive)
- GI50 (SN12C): > 100 µM (inactive)
- GI50 (Malme-3M): > 100 µM (inactive)
- GI50 (KM-20L2): > 100 µM (inactive)
- GI50 (HOP-92): 33.8 µM (inactive)
- GI50 (OVCAR-3): > 100 µM (inactive)
- GI50 (MOLT-4): > 100 µM (inactive)
- GI50 (EKVX): > 100 µM (inactive)
- GI50 (UACC-62): > 100 µM (inactive)
- GI50 (LOX IMVI): > 100 µM (inactive)
- GI50 (SK-MEL-2): > 100 µM (inactive)
- GI50 (SF-268): > 100 µM (inactive)
- GI50 (OVCAR-4): > 100 µM (inactive)
- GI50 (HOP-18): > 100 µM (inactive)
- GI50 (NCI-H226): > 100 µM (inactive)
- GI50 (K562): > 100 µM (inactive)

Compound: Nc1nc(N)nc(-c2ccccc2NS(=O)(=O)c2ccc([N+](=O)[O-])cc2)n1
- GI50 (SK-OV-3): > 100 µM (inactive)
- GI50 (DMS-114): 25.8 µM (inactive)
- GI50 (UACC-257): 43 µM (inactive)
- GI50 (OVCAR-5): > 100 µM (inactive)
- GI50 (DLD-1): 59.6 µM (inactive)
- GI50 (HCT-15): > 84.5 µM
- GI50 (RPMI-8226): 45.9 µM (inactive)
- GI50 (SNB-78): > 74.1 µM (inactive)
- GI50 (CCRF-CEM): 27.5 µM (inactive)
- GI50 (HCC 2998): > 70.5 µM (inactive)
- GI50 (SNB-19): > 100 µM (inactive)
- GI50 (SK-MEL-5): 29 µM (inactive)
- GI50 (KM12): 84.9 µM (inactive)
- GI50 (SW-620): > 100 µM (inactive)
- GI50 (A549): > 91.2 µM (inactive)
- GI50 (SNB-75): > 52.2 µM (inactive)
- GI50 (UO-31): > 54.8 µM (inactive)
- GI50 (NCI-H23): 37.2 µM (inactive)
- GI50 (M19-MEL): 34.9 µM (inactive)
- GI50 (HL-60): 19.3 µM (inactive)
- GI50 (IGROV-1): > 100 µM (inactive)
- GI50 (A498): > 100 µM (inactive)
- GI50 (NCI-H522): 55.8 µM (inactive)
- GI50 (HT-29): 53.7 µM (inactive)
- GI50 (OVCAR-8): 40.1 µM (inactive)
- GI50 (COLO 205): 17.9 µM (inactive)
- GI50 (DMS-273): 55.8 µM (inactive)
- GI50 (HOP-62): > 100 µM (inactive)
- GI50 (NCI/ADR-RES): 17.3 µM (inactive)
- GI50 (MCF7): > 81.5 µM (inactive)
- GI50 (NCI-H460): 42.9 µM (inactive)
- GI50 (XF498): 18.2 µM (inactive)
- GI50 (U-251): > 84.9 µM (inactive)
- GI50 (RXF 393): > 52 µM (inactive)
- GI50 (SF-539): > 100 µM (inactive)
- GI50 (HCT-116): 67.5 µM (inactive)
- GI50 (SF-295): 99.1 µM (inactive)
- GI50 (SK-MEL-28): > 100 µM (inactive)
- GI50 (SN12C): 97.3 µM (inactive)
- GI50 (Malme-3M): > 100 µM (inactive)
- GI50 (KM-20L2): > 100 µM (inactive)
- GI50 (HOP-92): > 100 µM (inactive)
- GI50 (OVCAR-3): 54 µM (inactive)
- GI50 (MOLT-4): > 54.5 µM (inactive)
- GI50 (EKVX): > 100 µM (inactive)
- GI50 (UACC-62): > 96.6 µM (inactive)
- GI50 (LOX IMVI): 38.2 µM (inactive)
- GI50 (SK-MEL-2): 81.5 µM (inactive)
- GI50 (SF-268): 96.8 µM (inactive)
- GI50 (OVCAR-4): 44.2 µM (inactive)
- GI50 (HOP-18): > 100 µM (inactive)
- GI50 (NCI-H226): 61.2 µM (inactive)
- GI50 (K562): > 10 µM (inactive)
